Laboratory results published in PMC7927096, “Dipeptides of S-Substituted Dehydrocysteine as Artzyme Building Blocks: Synthesis, Complexing Abilities and Antiproliferative Properties” (International Journal of Molecular Sciences, 2021).
Counter-ions that a name gives are not always drawn.

Tests used:
[1] = Potentiometric titration, protonation constants of free ligands; type: physicochemical; conditions: 298 K, ionic strength 0.1 M KCl; for protonation constant logβ, H2L / protonation constant logβ, H3L / protonation constant logβ, HL: ± SD
Protocol: (§1) The pH-metric measurements were performed on Metrohm 905 Titrando system equipped with combined Biotrop® electrode. The titrant was 0.1 M KOH (Merck, Germany) freed of CO2 by bubbling Ar gas for 3 h. The electrode calibration was performed before each titration. The volume of all the samples was 1.5 mL and the measurements were carried out at a range of pH of 2.5–11.0 in thermostated vessels at 298 K in an inert atmosphere of Ar gas. The ligands 9a and 10a were diluted in hydrochloric acid (pH = 2.5), prepared from 37% HCl (Sigma-Aldrich, Poland). Their concentration was set up at a range of 1.0–2.0 × 10^−3 M and the ionic strength of 0.1 M was achieved by the addition of KCl (Sigma-Aldrich, Poland). The ligand-metal ion systems were prepared by addition of CuCl2 (Sigma-Aldrich, Poland). stock solutions to reach final ligand to metal ratio (nL: nCu^2+) being 2:1 or 1:1.
(§2) The protonation (βi = [HiL]/[H^+]^i[L]), stability constants (βpqr = [MpHqLr]/[M]^p[H]^q[L]^r), and stoichiometry of complexes were calculated using the HYPERQUAD program. The distribution species plots were made by HySS program. The standard deviations were computed for all the constants and indicated the presence of only random errors, which was a good evidence of the presence of each species in the equilibrium.

[2] = Potentiometric titration and spectroscopy, stability constants of Cu(II)-complexes; type: physicochemical; conditions: for Cu(II) complexing ability (in words): 10a versus 9a below pH 5, 9a versus Gly(Z)Phe, nL:nCu(II) = 1:1
Protocol: as §1, §2
The UV-Vis absorption measurements were recorded on Varian Carry 50 Bio spectrophotometer. All spectra were collected in a quartz cuvette with 1 cm path length at 298 K. The spectral range was 300–800 nm with resolution 0.1 nm. The molar extinction coefficients (ε [M^−1cm^−1]) were calculated for each spectrum at a wavelength of maximum absorption.
The Circular Dichroism spectra (CD) and Magnetic Circular Dichroism (MCD) were measured on a JASCO J 600 spectropolarimeter in a range of 230–800 nm with 0.1 nm resolution. The optical length of the quartz cuvettes was 10 mm. The molar circular dichroism coefficient (Δε [M^−1cm^−1]) was calculated for each spectrum.
The Electron Paramagnetic Resonance (EPR) spectra were recorded on a Brucker ESP 300E spectrometer at X-band frequency (9.5 GHz) at 77 K obtained by the use of liquid nitrogen. The procedure of sample preparation for spectroscopic measurements was the same as in potentiometric titration. The EPR samples were protected by adding 30% of ethylene glycol (Sigma-Aldrich, Poland). The pH of the samples was determined by adding a small quantity of a concentrated solution of KOH (Merck, Germany) to achieve the desired value and controlled by Mettler Toledo pH-meter equipped with combined electrode InLab®Micro. The simulation of the EPR spectrum was performed by the Hyperfine Spectrum program written by W.R. Hagen.

[3] = tested on: ten diverse human cancer cells lines and murine non-tumorigenic cell line (Balb/3T3); experiment: Antiproliferative screen, whole cell line panel (statements in words); type: cell-based; conditions: SRB, across cell lines
From the text: (§3) Ten different human cancer cell lines (including drug-resistant sublines) and one non-tumorigenic murine fibroblasts cell line were used to determine antiproliferative activity of the tested compounds. The MDA-MB-231 (breast adenocarcinoma), UM-UC-3 (urinary bladder transitional cell carcinoma), LoVo (colorectal adenocarcinoma), LoVo^Dx (colorectal adenocarcinoma, doxorubicin-resistant) and Balb/3T3 (non-tumorigenic murine fibroblasts) were purchased from the American Type Culture Collection (ATCC; Rockville, USA). The MCF-7 (breast adenocarcinoma) and A549 (lung carcinoma) were purchased from European Collection of Authenticated Cell Cultures (ECACC; Porton Down, UK). The UM-UC-3^CDDP, UM-UC-3^GEM, UM-UC-3^VBL, and UM-UC-3^CDDP/GEM cell lines were established at Hirszfeld Institute of Immunology and Experimental Therapy of the Polish Academy of Sciences (HIIET, PAS, Wroclaw, Poland) by the continuous exposure to the increasing concentrations of corresponding cytostatics.
(§4) The Balb/3T3 and UM-UC-3 were cultured in Dulbecco’s Modified Eagle Medium (DMEM; Life Technologies, UK) supplemented with 10% (v/v) fetal bovine serum (FBS; GE Healthcare HyClone, Logan, USA) and 2 mM L-glutamine (Sigma-Aldrich, Poznań, Poland). The UM-UC-3^CDDP, UM-UC-3^GEM, UM-UC-^3VBL, and UM-UC-3^CDDP/GEM culture media were additionally supplemented with appropriate cytostatics: 2.5 µg/mL cisplatin (Accord, Warsaw, Poland) for UM-UC-3^CDDP, 500 nM gemcitabine (Sigma-Aldrich, Poznań, Poland) for UM-UC-3^GEM, 5 nM vinblastine (Sigma-Aldrich, Poznań, Poland) for UM-UC-3VBL, 2.5 µg/mL cisplatin and 500 nM gemcitabine for UM-UC-3^CDDP/GEM. The LoVo cell line was cultured in F-12K Nutrient Mixture (F-12K; Corning, Corning, USA), supplemented with 10% (v/v) FBS. LoVo^Dx culture medium was additionally supplemented with doxorubicin 100 ng/mL (Accord, Warsaw, Poland). The MCF-7 cell line was cultured in Eagle’s medium (HIIET, PAS, Wroclaw, Poland), supplemented with 10% (v/v) FBS (Sigma-Aldrich, Poznań, Poland), 2 mM L-glutamine, MEM non-essential amino acid solution 1% (v/v) (Sigma-Aldrich, Poznań, Poland), insulin 8 µg/mL (Sigma-Aldrich, Poznań, Poland). The MDA-MB-231 cell line was cultured in RPMI 1640 (HIIET, PAS, Wroclaw, Poland), supplemented with 10% (v/v) FBS (Sigma-Aldrich, Poznań, Poland) and 2 mM L-glutamine. The A 549 cell line was cultured in OptiMEM (HIIET, PAS, Wroclaw, Poland), supplemented with 5% (v/v) FBS (GE Healthcare HyClone, Logan, USA) and 2 mM L-glutamine. All culture media were supplemented with antibiotics—100 μg/mL streptomycin (Polfa Tarchomin, Warsaw, Poland) and 100 U/mL penicillin (Sigma-Aldrich, Poznań, Poland).
(§5) All cell lines were cultured in a humidified atmosphere at 37 °C with 5% (v/v) CO2 and passaged twice a week using EDTA-Trypsin solution (pH 8; HIIET, Wroclaw, Poland) as a detachment agent.
(§6) All compounds, for antiproliferative activity assessment, were stored at […] as 50 mM solutions in dimethyl sulfoxide (DMSO; Avantor Performance Materials, Gliwice, Poland).
(§7) The cells were seeded on 384-well plates (Greiner Bio One, Kremsmünster, Austria) at 1 × 10^3 cells/well density for A 549, UM-UC-3, UM-UC-3^CDDP, UM-UC-3^GEM, UM-UC-3^CVBL and UM-UC-3^CDDP/GEM cell lines. Other cell lines were seeded at 2 × 10^3 cells/well. After overnight incubation, compounds were applied at eight concentrations (ranging from 100 µM to 0.03 µM). After 72 h incubation, the sulforhodamine B (SRB) assay based on Skehan et al. was carried out with slight modifications. In brief, 50 µL of the medium was replaced with 30 µL/well of 25% (w/v) trichloroacetic acid (Avantor Performance Materials, Gliwice, Poland). After 1 h incubation at room temperature, plates were washed three times with tap water, and 20 µL of 0.1% (w/v) solution of sulforhodamine B (Sigma-Aldrich, Poznan, Poland) in 1% (v/v) acetic acid (Avantor Performance Materials, Gliwice, Poland) was added to each well. […]

[4] = tested on: MDA-MB-231 (breast adenocarcinoma); experiment: Antiproliferative activity, sulforhodamine B assay; type: cell-based, human; conditions: Homo sapiens, MDA-MB-231; SRB, 72 h incubation; read-out: IC50 ± SD, MDA-MB-231
From the text: as §3, §4, §5, §6, §7

[5] = tested on: LoVo^DX (colorectal adenocarcinoma, doxorubicin-resistant); experiment: Antiproliferative activity, sulforhodamine B assay; type: cell-based, human; conditions: Homo sapiens, LoVo/DX, SRB, 72 h incubation, read-out: IC50 ± SD, LoVo^DX
From the text: as §3, §4, §5, §6, §7

[6] = tested on: MCF-7 (breast adenocarcinoma); experiment: Antiproliferative activity, sulforhodamine B assay; type: cell-based, human; conditions: Homo sapiens, MCF7; SRB, 72 h incubation; read-out: IC50 ± SD, MCF-7
From the text: as §3, §4, §5, §6, §7

A549 (lung carcinoma) = experiment: Antiproliferative activity, sulforhodamine B assay; type: cell-based, human; conditions: Homo sapiens, A549; SRB, 72 h incubation; read-out: IC50 ± SD, A-549
From the text: as §3, §4, §5, §6, §7

[7] = tested on: LoVo (colorectal adenocarcinoma); experiment: Antiproliferative activity, sulforhodamine B assay; type: cell-based, human; conditions: Homo sapiens, LoVo; SRB, 72 h incubation; read-out: IC50 ± SD, LoVo
From the text: as §3, §4, §5, §6, §7

[8] = tested on: Balb/3T3 (non-tumorigenic murine fibroblasts); experiment: Antiproliferative activity, sulforhodamine B assay; type: cell-based; conditions: Mus musculus, BALB/3T3; SRB, 72 h incubation; non-tumorigenic line; read-out: IC50 ± SD, Balb/3T3
From the text: as §3, §4, §5, §6, §7

[9] = 298 K, ionic strength 0.1 M KCl
[10] = 298 K, ionic strength 0.1 M KCl, ± SD

protonation constant logK, H3L [1]	protonation constant logK, HL [1]	protonation constant logβ, H2L [1]	protonation constant logβ, H3L [1]	protonation constant logβ, HL [1]	logK, Cu2L2H [2, 9]	logK, CuL [2, 9]	logK, CuL2H [2, 9]	logK, CuLH2 [2, 9]	stability constant logβ, Cu2L2H [2, 10]	stability constant logβ, Cu2L2H-1 [2, 10]	stability constant logβ, CuL [2, 10]	stability constant logβ, CuL2 [2, 10]	stability constant logβ, CuL2H [2, 10]	stability constant logβ, CuLH2 [2, 10]	stability constant logβ, CuLH-1 [2, 10]	Compound	Cu(II) complexing ability (in words) [2]	antiproliferative activity (in words) [3]	other results
6.85	10.42	18.53 ± 0.02	25.38 ± 0.02	10.42 ± 0.01	14.59	10.61	8.45	8.83	37.54 ± 0.06	22.95 ± 0.06	15.00 ± 0.01	20.37 ± 0.05	28.82 ± 0.11	23.83 ± 0.03	4.39 ± 0.03	COC(=O)/C(=C/Sc1nc[nH]n1)NC(=O)[C@@H](N)Cc1ccccc1 [Compound 10a, HCl Phe-ΔCys(S-triazole)-OMe]	significantly more effective binder of Cu(II)	–	–
–	–	–	–	–	–	–	–	–	–	–	–	–	–	–	–	COC(=O)/C(=C/Sc1nc[nH]n1)NC(=O)CNC(=O)OC(C)(C)C [Compound 6a, Boc-Gly-ΔCys(S-triazole)-OMe]	–	markedly lower, if any, activity	–
–	–	–	–	–	–	–	–	–	–	–	–	–	–	–	–	COC(=O)/C(=C/Sc1nc2c(N)ncnc2[nH]1)NC(=O)[C@H](Cc1ccccc1)NC(=O)OC(C)(C)C [Compound 7e, Boc-Phe-ΔCys(S-adenine)-OMe]	–	markedly lower, if any, activity	IC50 [4]: 74.5 ± 7.7 µM; IC50 [5]: > 100 µM; IC50 [6]: 101 ± 11.3 µM; IC50 (A549 (lung carcinoma)): > 100 µM; IC50 [7]: 81.7 ± 12.4 µM; IC50 [8]: > 100 µM
7.26	10.09	18.05 ± 0.01	25.31 ± 0.01	10.09 ± 0.01	14.45	10.42	8.73	9.34	36.61 ± 0.03	22.16 ± 0.06	14.18 ± 0.01	20.06 ± 0.04	28.79 ± 0.04	23.52 ± 0.03	3.76 ± 0.04	COC(=O)/C(=C/Sc1nc[nH]n1)NC(=O)CN [Compound 9a, HCl Gly-ΔCys(S-triazole)-OMe]	significantly more effective in Cu(II) coordination	–	logK, CuL2 [2, 9]: 11.35; logK, CuL2H2 [2, 9]: 7.67; stability constant logβ, CuL2H2 [2, 10]: 36.46 ± 0.04; stability constant logβ, CuL2H-1 [2, 10]: 8.71 ± 0.07; corrected stability constant (logβ = logβCuLH2 − logβH2L) ([2]; CuH2L complex, equimolar conditions): 5.47; logβ* = logβCuL − logKHL ([2]; CuL species, independent of logKtriazole): 4.09
